Data taken from patent publication US9695155B2, “Herbicidal substituted pyrimidinyloxy benzene compounds” (E. I. DU PONT DE NEMOURS AND COMPANY, priority 2013, dated 2017).

Assays:
soybean = test: Test C postemergence; format: in vivo, Glycine max
Procedure, shortened: (§1)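 Rated visually on 0–100 (100 = complete control) after 13–15 days under glass. Treatments went onto freshly seeded loam/sand soil or onto emerged plants at the 1- to 4-leaf stage, using a surfactant-containing solvent formulation.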

morningglory = test: Test A postemergence; format: in vivo, Ipomoea spp.
Procedure, shortened: (§2)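 Visual 0–100 rating (100 = complete control) taken about 10 d post-treatment relative to untreated checks. Preemergence: directed soil spray on sown loam/sand pots. Postemergence: seedlings 2–10 cm, 1–2 leaf. Non-phytotoxic solvent formulation with surfactant.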

barnyardgrass [1] = test: Test A postemergence; format: in vivo, Echinochloa crus-galli
Procedure, shortened: as §2

Italian ryegrass [2] = test: Test C preemergence; format: in vivo, Lolium multiflorum
Procedure, shortened: as §1

lambsquarters = test: Test C preemergence; format: in vivo, Chenopodium album
Procedure, shortened: as §1

velvetleaf = test: Test C preemergence; format: in vivo, Abutilon theophrasti
Procedure, shortened: as §1

Heteranthera limosa = test: Test B flooded paddy test; format: in vivo; conditions: Flood, 250 g ai/ha, 0 to 100 scale where 0 is no effect and 100 is complete control
Procedure, shortened: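 Post-emergence paddy-water application at the 2-leaf stage, with 3 cm flood kept for the whole test. Response was judged visually relative to controls after 13 to 15 greenhouse days, 0 indicating no effect and 100 complete control.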

giant foxtail [3] = test: Test A postemergence; format: in vivo, Setaria faberii
Procedure, shortened: as §2

barnyardgrass [4] = test: Test C preemergence; format: in vivo, Echinochloa crus-galli
Procedure, shortened: as §1

wheat, winter = test: Test C preemergence; format: in vivo, Triticum aestivum
Procedure, shortened: as §1

Italian ryegrass [5] = test: Test C postemergence; format: in vivo, Lolium multiflorum
Procedure, shortened: as §1

pigweed = test: Test A postemergence; format: in vivo, Amaranthus retroflexus
Procedure, shortened: as §2

giant foxtail [6] = test: Test A preemergence; format: in vivo, Setaria faberii
Procedure, shortened: as §2

johnsongrass = test: Test C postemergence; format: in vivo, Sorghum halepense
Procedure, shortened: as §1

blackgrass = test: Test C preemergence; format: in vivo, Alopecurus myosuroides
Procedure, shortened: as §1

[7] = 31 g ai/ha, postemergence, visual rating, scale 0 to 100 (0 no effect, 100 complete control), 13 to 15 days
[8] = 16 g ai/ha, postemergence, 0 is no effect, 100 is complete control
[9] = 125 g ai/ha, postemergence, visual rating, scale 0 to 100 (0 no effect, 100 complete control)
[10] = Postemergence, 62 g ai/ha, scale 0 to 100 (0 no effect, 100 complete control)
[11] = 1000 g ai/ha, 0 to 100 scale, 0 no effect, 100 complete control
[12] = 16 g ai/ha, preemergence, scale 0 to 100 (0 no effect, 100 complete control)
[13] = 62 g ai/ha, preemergence, scale 0 (no effect) to 100 (complete control)
[14] = 125 g ai/ha, preemergence, scale 0 (no effect) to 100 (complete control)
[15] = Preemergence, 31 g ai/ha, scale 0 to 100, 0 no effect, 100 complete control

## FC(F)(F)c1cn(-c2ccccc2Oc2ncc(Cl)cn2)nn1 [Compound 166, 5-chloro-2-[2-[4-(trifluoromethyl)-1H-1,2,3-triazol-1-yl]phenoxy]pyrimidine]
soybean; [7]
  Soybean plant response rating: 95
soybean; Glycine max, post-emergence, 16 g ai/ha, postemergence, 0 is no effect, 100 is complete control
  Soybean plant response rating (crop injury, 0-100 scale) at 16 g/ha: 40%
soybean; Glycine max, post-emergence, 125 g ai/ha, postemergence, visual rating, scale 0 to 100 (0 no effect, 100 complete control), read-out: Plant response rating, Soybean
  Soybean plant response rating (crop injury, 0-100 scale) at 125 g/ha: 95%
soybean; Glycine max, post-emergence, Postemergence, 62 g ai/ha, scale 0 to 100 (0 no effect, 100 complete control)
  Soybean plant response rating (crop injury, 0-100 scale) at 62 g/ha: 90%
morningglory; 125 g ai/ha, 0 to 100 scale where 0 is no effect and 100 is complete control
  Morningglory plant response rating: 100
morningglory; Ipomoea, post-emergence, 240 h, 500 g ai/ha, 0 to 100 scale where 0 is no effect and 100 is complete control, read-out: Plant response rating, Morningglory
  pest or weed control at 500 g/ha: 100%
Barnyardgrass [1]; Echinochloa crus-galli, post-emergence, 240 h, 125 g ai/ha, 0 to 100 scale where 0 is no effect and 100 is complete control, read-out: Barnyardgrass plant response rating
  pest or weed control at 125 g/ha: 90%
Barnyardgrass [1]; Echinochloa crus-galli, post-emergence, 240 h, 500 g ai/ha, 0 to 100 scale where 0 is no effect and 100 is complete control, read-out: Plant response rating, Barnyardgrass
  pest or weed control at 500 g/ha: 100%
Italian ryegrass [2]; Lolium multiflorum, pre-emergence, 16 g ai/ha, preemergence, scale 0 to 100 (0 no effect, 100 complete control), read-out: Ryegrass, Italian plant response rating
  pest or weed control at 16 g/ha: 5%
Italian ryegrass [2]; Lolium multiflorum, pre-emergence, 62 g ai/ha, preemergence, scale 0 (no effect) to 100 (complete control), read-out: Ryegrass, Italian plant response rating
  pest or weed control at 62 g/ha: 90%
Italian ryegrass [2]; Lolium multiflorum, pre-emergence, 125 g ai/ha, preemergence, scale 0 (no effect) to 100 (complete control), read-out: Ryegrass, Italian plant response rating
  pest or weed control at 125 g/ha: 90%
lambsquarters; Chenopodium album, pre-emergence, 16 g ai/ha, preemergence, scale 0 to 100 (0 no effect, 100 complete control), read-out: Lambsquarters plant response rating
  pest or weed control at 16 g/ha: 90%
lambsquarters; Chenopodium album, pre-emergence, 62 g ai/ha, preemergence, scale 0 (no effect) to 100 (complete control), read-out: Lambsquarters plant response rating
  pest or weed control at 62 g/ha: 98%
lambsquarters; Chenopodium album, pre-emergence, 125 g ai/ha, preemergence, scale 0 (no effect) to 100 (complete control), read-out: Lambsquarters plant response rating
  pest or weed control at 125 g/ha: 98%
velvetleaf; Abutilon theophrasti, pre-emergence, 16 g ai/ha, preemergence, scale 0 to 100 (0 no effect, 100 complete control), read-out: Velvetleaf plant response rating
  pest or weed control at 16 g/ha: 80%
velvetleaf; Abutilon theophrasti, pre-emergence, 62 g ai/ha, preemergence, scale 0 (no effect) to 100 (complete control), read-out: Velvetleaf plant response rating
  pest or weed control at 62 g/ha: 100%
velvetleaf; Abutilon theophrasti, pre-emergence, 125 g ai/ha, preemergence, scale 0 (no effect) to 100 (complete control), read-out: Velvetleaf plant response rating
  pest or weed control at 125 g/ha: 100%
Heteranthera limosa; Heteranthera limosa, read-out: Plant response rating, Ducksalad
  pest or weed control at 250 g/ha: 95%
Giant foxtail [3]; Setaria faberi, post-emergence, 240 h, 125 g ai/ha, 0 to 100 scale where 0 is no effect and 100 is complete control, read-out: Foxtail, Giant plant response rating
  pest or weed control at 125 g/ha: 90%
Giant foxtail [3]; Setaria faberi, post-emergence, 240 h, 500 g ai/ha, 0 to 100 scale where 0 is no effect and 100 is complete control, read-out: Plant response rating, Foxtail, Giant
  pest or weed control at 500 g/ha: 90%
Barnyardgrass [4]; Echinochloa crus-galli, pre-emergence, 16 g ai/ha, preemergence, scale 0 to 100 (0 no effect, 100 complete control), read-out: Barnyardgrass plant response rating
  pest or weed control at 16 g/ha: 85%
Barnyardgrass [4]; Echinochloa crus-galli, pre-emergence, 62 g ai/ha, preemergence, scale 0 (no effect) to 100 (complete control), read-out: Barnyardgrass plant response rating
  pest or weed control at 62 g/ha: 100%
Barnyardgrass [4]; Echinochloa crus-galli, pre-emergence, 125 g ai/ha, preemergence, scale 0 (no effect) to 100 (complete control), read-out: Barnyardgrass plant response rating
  pest or weed control at 125 g/ha: 100%
Barnyardgrass [4]; Echinochloa crus-galli, pre-emergence, Preemergence, 31 g ai/ha, scale 0 to 100, 0 no effect, 100 complete control, read-out: Plant response rating, Barnyardgrass
  pest or weed control at 31 g/ha: 100%
wheat, winter; Triticum aestivum, pre-emergence, 16 g ai/ha, preemergence, scale 0 to 100 (0 no effect, 100 complete control), read-out: Wheat plant response rating
  plant injury at 16 g/ha: 0%
wheat, winter; Triticum aestivum, pre-emergence, 62 g ai/ha, preemergence, scale 0 (no effect) to 100 (complete control), read-out: Wheat plant response rating
  plant injury at 62 g/ha: 60%
wheat, winter; Triticum aestivum, pre-emergence, 125 g ai/ha, preemergence, scale 0 (no effect) to 100 (complete control), read-out: Wheat plant response rating
  plant injury at 125 g/ha: 90%
Italian ryegrass [5]; [7]
  Ryegrass, Italian plant response rating: 5
Italian ryegrass [5]; Lolium multiflorum, post-emergence, 16 g ai/ha, postemergence, 0 is no effect, 100 is complete control, read-out: Plant response rating (0 to 100), Ryegrass, Italian
  pest or weed control at 16 g/ha: 0%
Italian ryegrass [5]; Lolium multiflorum, post-emergence, 125 g ai/ha, postemergence, visual rating, scale 0 to 100 (0 no effect, 100 complete control), read-out: Plant response rating, Ryegrass, Italian
  pest or weed control at 125 g/ha: 30%
Italian ryegrass [5]; Lolium multiflorum, post-emergence, Postemergence, 62 g ai/ha, scale 0 to 100 (0 no effect, 100 complete control), read-out: Plant response rating, Ryegrass, Italian
  pest or weed control at 62 g/ha: 15%
pigweed; Amaranthus retroflexus, post-emergence, 500 g ai/ha, 0 to 100 scale where 0 is no effect and 100 is complete control, read-out: Plant response rating, Pigweed
  pest or weed control at 500 g/ha: 100%
pigweed; Amaranthus retroflexus, post-emergence, 240 h, 125 g ai/ha, 0 to 100 scale where 0 is no effect and 100 is complete control, read-out: Pigweed plant response rating
  pest or weed control at 125 g/ha: 100%
Giant foxtail [6]; Setaria faberi, pre-emergence, 240 h, 125 g ai/ha, 0 to 100 scale where 0 is no effect and 100 is complete control, read-out: Plant response rating, Foxtail, Giant
  pest or weed control at 125 g/ha: 100%
Giant foxtail [6]; Setaria faberi, pre-emergence, 240 h, 500 g ai/ha, 0 to 100 scale where 0 is no effect and 100 is complete control, read-out: Foxtail, Giant plant response rating
  pest or weed control at 500 g/ha: 100%
johnsongrass; [7]
  Johnsongrass plant response rating: 5
johnsongrass; Sorghum halepense, post-emergence, 16 g ai/ha, postemergence, 0 is no effect, 100 is complete control, read-out: Plant response rating (0 to 100), Johnsongrass
  pest or weed control at 16 g/ha: 5%
johnsongrass; Sorghum halepense, post-emergence, 125 g ai/ha, postemergence, visual rating, scale 0 to 100 (0 no effect, 100 complete control), read-out: Plant response rating, Johnsongrass
  pest or weed control at 125 g/ha: 5%
johnsongrass; Sorghum halepense, post-emergence, Postemergence, 62 g ai/ha, scale 0 to 100 (0 no effect, 100 complete control), read-out: Plant response rating, Johnsongrass
  pest or weed control at 62 g/ha: 5%
blackgrass; Alopecurus myosuroides, pre-emergence, 16 g ai/ha, preemergence, scale 0 to 100 (0 no effect, 100 complete control), read-out: Blackgrass plant response rating
  pest or weed control at 16 g/ha: 40%
blackgrass; Alopecurus myosuroides, pre-emergence, 62 g ai/ha, preemergence, scale 0 (no effect) to 100 (complete control), read-out: Blackgrass plant response rating
  pest or weed control at 62 g/ha: 90%
blackgrass; Alopecurus myosuroides, pre-emergence, 125 g ai/ha, preemergence, scale 0 (no effect) to 100 (complete control), read-out: Blackgrass plant response rating
  pest or weed control at 125 g/ha: 100%
blackgrass; Alopecurus myosuroides, pre-emergence, Preemergence, 31 g ai/ha, scale 0 to 100, 0 no effect, 100 complete control, read-out: Plant response rating, Blackgrass
  pest or weed control at 31 g/ha: 85%

## N#Cc1cn(-c2c(Br)cccc2Oc2ncc(Cl)cn2)nn1 [Compound 116]
soybean; [8]
  Plant response rating (0 to 100), Soybean: 15
soybean; [9]
  Plant response rating, Soybean: 95
soybean; [10]
  Plant response rating, Soybean: 60
morningglory; [11]
  Plant response rating, Morningglory: 100
Barnyardgrass [1]; [11]
  Plant response rating, Barnyardgrass: 90
Italian ryegrass [2]; [12]
  Ryegrass, Italian plant response rating: 0
Italian ryegrass [2]; [13]
  Ryegrass, Italian plant response rating: 10
Italian ryegrass [2]; [14]
  Ryegrass, Italian plant response rating: 35
Italian ryegrass [2]; [15]
  Plant response rating, Ryegrass, Italian: 0
lambsquarters; [12]
  Lambsquarters plant response rating: 10
lambsquarters; [13]
  Lambsquarters plant response rating: 85
lambsquarters; [14]
  Lambsquarters plant response rating: 100
lambsquarters; [15]
  Plant response rating, Lambsquarters: 95
velvetleaf; [12]
  Velvetleaf plant response rating: 20
velvetleaf; [13]
  Velvetleaf plant response rating: 100
velvetleaf; [14]
  Velvetleaf plant response rating: 100
velvetleaf; [15]
  Plant response rating, Velvetleaf: 70
Heteranthera limosa
  Plant response rating, Ducksalad: 60
Giant foxtail [3]; [11]
  Plant response rating, Foxtail, Giant: 90
Barnyardgrass [4]; [12]
  Barnyardgrass plant response rating: 0
Barnyardgrass [4]; [13]
  Barnyardgrass plant response rating: 45
Barnyardgrass [4]; [14]
  Barnyardgrass plant response rating: 70
Barnyardgrass [4]; [15]
  Plant response rating, Barnyardgrass: 25
wheat, winter; [12]
  Wheat plant response rating: 0
wheat, winter; [13]
  Wheat plant response rating: 0
wheat, winter; [14]
  Wheat plant response rating: 5
wheat, winter; [15]
  Plant response rating, Wheat: 0
Italian ryegrass [5]; [8]
  Plant response rating (0 to 100), Ryegrass, Italian: 5
Italian ryegrass [5]; [9]
  Plant response rating, Ryegrass, Italian: 5
Italian ryegrass [5]; [10]
  Plant response rating, Ryegrass, Italian: 5
pigweed; [11]
  Plant response rating, Pigweed: 100
Giant foxtail [6]; 1000 g ai/ha, 0 to 100 scale, 0 no effect, 100 complete control, approx. 10 days
  Foxtail, Giant plant response rating: 100
johnsongrass; [8]
  Plant response rating (0 to 100), Johnsongrass: 0
johnsongrass; [9]
  Plant response rating, Johnsongrass: 15
johnsongrass; [10]
  Plant response rating, Johnsongrass: 0
blackgrass; [12]
  Blackgrass plant response rating: 0
blackgrass; [13]
  Blackgrass plant response rating: 60
blackgrass; [14]
  Blackgrass plant response rating: 85
blackgrass; [15]
  Plant response rating, Blackgrass: 10
